“Also recorded” adds a separate entry of the source.
Experiments:
platelets [1] = assay: Collagen induced platelet aggregation; assay type: cell-based, human; conditions: for Reversibility of aggregation block upon a wash of the inhibitor treated platelets: up to 30 μM Casin, FIG. 3D lower panel
Description: FIG. 3D. Collagen induced aggregation is blocked by 10 μM Casin (upper panel) and is reversible (up to 30 μM Casin) upon a wash of the inhibitor treated platelets (lower panel).
FIG. 4D. Collagen induced aggregation is blocked by NSC23766 in a dose-dependent fashion.
FIG. 4E. Inhibition of collagen induced platelet aggregation by NSC23766 (50 μM) is reversible upon a wash of the inhibitor treated platelets.
(§1) FIG. 5D. Collagen induced aggregation is inhibited by G04 (upper panel). Similar to collagen, thrombin induced aggregation (data not shown) is blocked by G04 in a dose-dependent fashion (upper panel) and is reversible upon a wash of the inhibitor treated platelets (lower panel).
Applicant has tested the ability of three chemical inhibitors, CASIN, NSC23766 and G04, targeting Cdc42, Rac1 and RhoA, respectively (FIG. 2), to inhibit the activity of the GTPases and the consequent cytoskeleton-dependent functions of human platelets. A rationally developed inhibitor of Cdc42 with activity on activation by guanine nucleotide exchange factors is CASIN (29, Nature Biotech under revision). CASIN was recently discovered by Zheng group as a small molecule that recognizes a pocket domain that specifically blocks the ability of GEF interaction with Cdc42 (FIG. 3A). CASIN is found to suppress of hematopoietic stem cell aging through its specific Cdc42 inhibitory activity (29). In platelets, it inhibits Cdc42 activation (FIG. 3B) and prevents collagen-induced platelet shape changes (FIG. 3C). […]
(§2) Finally, G04/Rhosin was also developed by us as a RhoA GTPase activation site inhibitor that transiently and specifically blocks RhoA activity and RhoA-mediated signaling functions (36, 37). […] Effect by collagen or thrombin is reversible (FIG. 5D, lower).

platelets [2] = assay: Platelet actin lamellopodia structure / spreading, rhodamine-phalloidin staining; assay type: cell-based, human; conditions: for Fibrinogen-mediated platelet actin lamellopodia structure: NSC23766 50 μM, FIG. 4C
Description: FIG. 4C. Fibrinogen-mediated platelet actin lamellopodia structure is blocked by NSC23 766 (50 μM). Rhodamine conjugated phalloidin-staining of platelets adhered to coated collagen surface.
FIG. 5C. U46629 ([…]/Fibrinogen (3 μM)-mediated platelet actin lamellopodia structure is blocked by G04 (30 μM). Rhodamine conjugated phalloidin-staining of platelets adhered to coated collagen surface.
Similarly, Applicant has identified an inhibitor of Rac, NSC23766 (30-34), with an ability to impair Rac1 activation by multiple activating signals which may be crucial in platelet signaling associated with GpIb/GpX (35). NSC23766 was discovered in a structure-based virtual screening of compounds that fit into a surface groove of Rac 1 known to be critical for guanine nucleotide exchange factor specification (34) (FIG. 4A).
as §2

[3] = system: C57Bl/6 murine carboxyfluorescein-labeled platelets; assay: Recovery and survival of refrigerated platelets after infusion in congenic mice; assay type: in vivo; conditions: for Platelet 24-hour recovery in vivo / Platelet survival in vivo: refrigerated platelets stored at 0° C.; for Platelet 24-hour recovery in vivo: FIG. 6B; for Platelet survival in vivo: FIG. 6C
Description: FIG. 6C-FIG. 6D. Platelet recovery at different time points. Donor platelets were stored at room temperature (squares) or pretreated with a mixed Rho GTPase inhibitors (50 μM NSC23766, 10 μM CASIN and/or 75 μM G04) or no drug (control). Data are presented as mean SD. *p<0.01 (Anova test with Bonferroni correction, between refrigerated with no inhibitor and refrigerated with triple inhibitor combination).
FIG. 7 depicts effects of Rho GTPase inhibitor combinations on platelet survival upon transfusion. Platelet recovery at different time points is shown. Donor platelets were stored at room temp (squares) or pretreated with a mixed Rho GPase inhibitors (50 uM NSC23766, 10 uM CASIN and/or 75 uM G04) or no drug (Ctrl). Data are presented as mean±SD. *p<0.01 (Anova test with Bonferroni correction, between refrigerated with no inhibitor and refrigerated with triple inhibitor combination).
A combination of CASIN (10 μM), G04 (75 μM) and/or NSC23766 were used in C57Bl/6 murine carboxyfluorescein-labeled platelets incubated at 0° C. or 5° C. for 3.5 hours. After re-warming, platelets were infused in 5 congenic mice (per group) and compared with control (room temperature stored) and refrigerated, untreated platelet group (FIG. 7). […] In a second experiment focused on the specific combinations with more activity to reverse the survival impairment associated with the use of Rho GTPase inhibitors, we analyzed the 24-hour recovery (%) and survival (hours) of platelets that had been stored in presence of several combinations of drugs (FIG. 6A).

Cdc42 = target: T1, Cdc42 (Homo sapiens, UniProt P60953); assay: Cdc42 activation in platelets, GST-PAK pulldown assay; assay type: cell-based; conditions: Casin 10 μM, FIG. 3B
T1 construct: endogenous in cells; host or cells: human platelets
Description: FIG. 3B. Collagen-induced Cdc42 activation is inhibited by Casin (10 μM) in a GST-PAK pulldown assay.
(§3) Applicant has tested the ability of three chemical inhibitors, CASIN, NSC23766 and G04, targeting Cdc42, Rac1 and RhoA, respectively (FIG. 2), to inhibit the activity of the GTPases and the consequent cytoskeleton-dependent functions of human platelets. A rationally developed inhibitor of Cdc42 with activity on activation by guanine nucleotide exchange factors is CASIN (29, Nature Biotech under revision). CASIN was recently discovered by Zheng group as a small molecule that recognizes a pocket domain that specifically blocks the ability of GEF interaction with Cdc42 (FIG. 3A). CASIN is found to suppress of hematopoietic stem cell aging through its specific Cdc42 inhibitory activity (29). In platelets, it inhibits Cdc42 activation (FIG. 3B) and prevents collagen-induced platelet shape changes (FIG. 3C).

platelets [4] = assay: Platelet actin filopodia structure / shape change, rhodamine-phalloidin staining; assay type: cell-based, human; conditions: Casin 10 μM, platelets adhered to coated collagen surface, FIG. 3C
Description: FIG. 3C. Fibrinogen mediated platelet actin filopedia structure is blocked by Casin (10 μM). Rhodamine conjugated phalloidin-staining of platelets adhered to coated collagen surface.
as §3

hematopoietic stem cell = conditions: cited from earlier work
platelets [5] = assay: Thrombin induced platelet aggregation; assay type: cell-based, human
From the text: as §1, §2

RhoA [6] = target: T2, RhoA (Homo sapiens, UniProt P61586); conditions: binding to surface area sandwiching Trp58 of RhoA; cited from earlier work
Target sequence in this assay (P61586 whole entry, species assumed): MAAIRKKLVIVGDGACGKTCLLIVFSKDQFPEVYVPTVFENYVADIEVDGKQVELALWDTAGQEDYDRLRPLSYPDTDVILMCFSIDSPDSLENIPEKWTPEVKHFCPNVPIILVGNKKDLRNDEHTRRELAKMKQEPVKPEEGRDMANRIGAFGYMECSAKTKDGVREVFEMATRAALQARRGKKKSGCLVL

RhoA [7] = target: T2, RhoA; conditions: cited from earlier work
Target sequence in this assay (P61586 whole entry, species assumed): as above

RhoA [8] = target: T2, RhoA; assay: Collagen-induced RhoA activity in platelets, GST-Rhotekin pulldown assay; assay type: cell-based; set-up: endogenous in cells; host or cells: human platelets; conditions: G04 50 μM, FIG. 5B
Description: FIG. 5B. Collagen-induced RhoA activity is inhibited by Go4 (50 μM) in a GST-Rhotekin pulldown assay.
as §2
Target sequence in this assay (P61586 whole entry): as the sequence (P61586 whole entry, species assumed) above

T1 sequence (P60953 whole entry): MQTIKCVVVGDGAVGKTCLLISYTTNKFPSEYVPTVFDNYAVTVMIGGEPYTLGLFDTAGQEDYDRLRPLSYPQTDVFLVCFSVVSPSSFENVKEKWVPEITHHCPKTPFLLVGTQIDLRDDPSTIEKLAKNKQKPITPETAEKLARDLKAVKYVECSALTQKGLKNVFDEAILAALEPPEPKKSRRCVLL

For `CCN(CC)CCCC(C)Nc1nc(C)cc(Nc2ccc3nc(C)cc(N)c3c2)n1` (racemic) [NSC23766], the “Reversibility of inhibition of collagen induced platelet aggregation upon a wash” value (platelets [1]; NSC23766 50 μM, FIG. 4E) was “reversible”, the Collagen induced aggregation (platelets [1]; NSC23766, dose-dependent fashion, FIG. 4D) was “reversibly inhibits; also recorded: blocked” and the “Fibrinogen-mediated platelet actin lamellopodia structure” value (platelets [2]) was “effectively block”. The “Fibrinogen-mediated platelet actin lamellopodia structure” value (platelets [2]; listed as NSC23 766) was “blocked” and the “Reversal of the survival deficiency (storage lesion) induced by refrigerated storage” value ([3]; platelets incubated at 0° C. or 5° C. for 3.5 hours, infused in congenic mice, 50 uM NSC23766, 10 uM CASIN and/or 75 uM G04, FIG. 7) was “did not result in significant reversal”.
With `OCCNC1CCCc2c1[nH]c1ccc(-c3ccccc3)cc21` (stereo not drawn) [CASIN] the “Collagen-induced Cdc42 activation” value (Cdc42) was “inhibits”, the “Collagen-induced Cdc42 activation” value (Cdc42; listed as Casin) was “inhibited” and the “Platelet actin filopodia structure / collagen-induced platelet shape changes” value (platelets [4]) was “prevents”. The “Platelet actin filopodia structure / collagen-induced platelet shape changes” value (platelets [4]; listed as Casin) was “blocked”, the Collagen induced aggregation (platelets [1]; 10 μM Casin, FIG. 3D upper panel) was “prevention” and the Collagen induced aggregation (platelets [1]; 10 μM Casin, FIG. 3D upper panel, listed as Casin) was “blocked”. For the same molecule, the “Reversibility of aggregation block upon a wash of the inhibitor treated platelets” value (platelets [1]) was “can be reversed”, the “Reversibility of aggregation block upon a wash of the inhibitor treated platelets” value (platelets [1]; listed as Casin) was “reversible” and the “Platelet 24-hour recovery in vivo” value [3] was “did not improve”. For the same molecule, the “Platelet survival in vivo” value [3] was “did not improve” and the “Hematopoietic stem cell aging” value (hematopoietic stem cell) was “suppress”.
For `N[C@H](Cc1c[nH]c2ccccc12)C(=O)N/N=C/c1ccc2nccnc2c1` [G04], the Collagen induced aggregation (platelets [1]; G04, FIG. 5D upper panel) was “inhibited”, the “Reversibility of effect on collagen induced aggregation” value (platelets [1]; G04, wash of inhibitor treated platelets, FIG. 5D lower) was “reversible” and the “U46629/Fibrinogen-mediated platelet actin lamellopodia structure (platelet spreading)” value (platelets [2]; G04 30 μM, U46629 10 mM, Fibrinogen 3 μM, FIG. 5C) was “inhibits; also recorded: blocked”. For the same molecule, the Thrombin induced aggregation (platelets [5]; G04, dose-dependent fashion, data not shown) was “blocked”, the “Reversibility of block of thrombin induced aggregation upon a wash” value (platelets [5]; G04, FIG. 5D lower panel) was “reversible” and the “Platelet 24-hour recovery in vivo” value [3] was “did not improve”. For the same molecule, the “Platelet survival in vivo” value [3] was “did not improve”, the Kd (RhoA [6]) was “submicromolar” and the “GEF-catalyzed RhoA activation” value (RhoA [7]) was “effectively inhibits”. For the same molecule, the “Collagen-induced RhoA activity” value (RhoA [8]) was “specifically inhibits” and the “Collagen-induced RhoA activity” value (RhoA [8]; listed as Go4) was “inhibited”.

Reference: patent US11172673B2, “Platelet storage methods and compositions for same” (Children's Hospital Medical Center, priority 2014, dated 2021)
